From patent US20260027175A1, “COMPOSITIONS AND METHODS FOR TREATING A COGNITIVE DEFICIT” (priority 2022, published 2026)

Experiments:
c-Jun (substrate of JNK) = assay: Phospho c-Jun immunofluorescence, high content imaging; format: cell-based; conditions: reference treatment: 1 μM anisomycin 10 μg/mL, 30 min
Description: SACC was received as an aqueous stock solution. The different solutions were created by performing cascade dilutions in the culture medium.
Cells were seeded at 12 10^3 cells/well in 96 well plates and cultured for 24 h. Subsequently, cells were exposed to the different tested conditions (reference treatment: 1 μM anisomycin 10 μg/mL, 30 min). At the end of the treatment, the cells were processed for immunofluorescence with a specific antibody against the phosphorylated form of c-Jun. The fluorescent immune-staining was subsequently imaged by high content imaging. Single cell analysis of the phospho c-Jun immune-staining was performed.
The pharmacological modulators that decreased the cytotoxic effects of 1% SACC did it on the 1% were maximally effective at 50 h treatment. Therefore, the effect of SACC was studied after 50 h treatment with 0.1%; 0.3% and 1% SACC on phosphorylation level of the c-Jun (substrate of JNK).

Phospho-Tau in neurons = assay: Okadaic acid induced Tau hyper-phosphorylation in primary cortical neurons (Phospho-Tau/MAP2 immunofluorescence); format: cell-based, rat
Description: The potential efficacy of the test compound (SAAC) against Alzheimer's disease was evaluated using an in vitro model in which Tau hyper-phosphorylation Is Induced by pharmacological treatment.
The test compound was tested in culture medium at […], and 10%. Positive control of reversion of hyperphosphorylation was […] at 3 mM.
Primary cortical cultures from E 19 rat embryos.
Phospho-Tau intensity in neurons and percentage of neurons with hyperphosphorylated Tau.
Cortical neurons from E 19 rat embryos were harvested and plated in 96 well plates. After 9 days in vitro, cells were treated with LiCI at 3 mM for 24 hours as a positive neuroprotective control or the test compound (SAAC) at 7 different concentrations. Another plate was pre-treated with the test compound (SAAC) at 7 different concentrations for 4 hours.
At the end of treatment durations, cells were treated with okadaic acid (OKA) for 3 hours. The cells were then fixed and processed for immunofluorescence analysis of Phospho-Tau (P-Tau) in neurons (Phospho-Tau labelling and neuronal labelling with MAP2 antibody).
After 9 days in vitro, neurons were treated with LiCI at 3 mM for 24 hours as a positive neuroprotective control (FIG. 5) or the test compound (SAAC) at 7 different concentrations (FIG. 7 & FIG. 8). At the end of treatment duration, cells were treated with okadaic acid (OKA) for 3 hours. After Phospho-Tau and MAP2 labelling, the signals were acquired and the mean intensity of Phospho-Tau staining in the neurons as well as the percentage of neurons with a high Phospho-Tau level was assessed.

NF-κβ p65 subunit = assay: Quantification of NF-KB p65 unit (ActivELISA) in hippocampus of ICV-OKA rats; format: in vivo, Wistar rats; conditions: ICV-OKA administered rats
Description: (§1) Intracerebroventricular injection of okadaic acid was performed according to the procedure of Kamat et al. (2010). Rats were anesthetized with thiopentone (Neon Laboratories, India, 45 mg/kg, i.p.). The scalp was shaved, cleaned, and cut to expose the skull. The head was positioned in a stereotaxic frame and a midline sagittal incision was made in the scalp. Burr holes were drilled in the skull on both sides over the lateral ventricles by using the following coordinates: 0.8 mm posterior to bregma; 1.5 mm lateral to sagittal suture and 3.6 mm beneath the surface of the brain (Paxinos et al., 1980). Okadaic acid (200 ng) was injected bilaterally making the total dose of 100 ng in each ventricle. […]
(§2) The experimental design is illustrated in FIG. 1. […] Memory impairment was assessed by Morris Water Maze on days 15th, 21st, 28th. […]
The NF-KB/p65 ActivELISA kit (Imgenex, USA) was used to measure NF-KB-free p65 in the nuclear fraction of different brain regions. […] The NF-KB ActivELISA is a sandwich ELISA in which free p65 was captured by anti-p65 antibody-coated plates and the amount of bound p65 was detected by adding a second anti-p65 antibody followed by alkaline phosphatase conjugated secondary antibody using colorimetric detection in an ELISA plate reader at 405 nm. The results were expressed as ng/mg of protein.

ICV-OKA rats = assay: Cognitive performance in Morris water maze task, ICV-OKA rats; format: in vivo, Wistar rats; conditions: ICV injection 100 ng each ventricle, 15th day
Description: Adult male Wistar rats (200-230 g, 2 months old) were used.
Nuclear factor kappa-light-chain-enhancer of activated B cells (NF-KB) and BDNF ELISA kits were procured from Imegenex, San Diego, USA and Millipore, USA respectively. All other chemicals used for biochemical estimations were of analytical grade. SAAC was dissolved in double distilled water (DDW) while okadaic acid was dissolved in artificial cerebrospinal fluid (aCSF) (2.9 mM KCl, 147 mM NaCl, 1.7 mM CaCl2, 1.6 mM MgCl2, and 2.2 mM D-glucose).
as §1, with “1980).” for “1980). Okadaic acid (200 ng) was injected bilaterally making the total dose of 100 ng in each ventricle.”
as §2
The acquisition and retention of memory was evaluated by using Morris water maze (Morris et al., 1982; Tuzcu and Baydas, 2006). […]

BDNF = assay: Quantification of brain derived neurotrophic factor (BDNF) in hippocampus of ICV-OKA rats; format: in vivo, Wistar rats; conditions: ICV-OKA rats compared to sham group
Description: Intracerebroventricular injection of okadaic acid was performed according to the procedure of Kamat et al. (2010). Rats were anesthetized with thiopentone (Neon Laboratories, India, 45 mg/kg, i.p.). The scalp was shaved, cleaned, and cut to expose the skull. The head was positioned in a stereotaxic frame and a midline sagittal incision was made in the scalp. Burr holes were drilled in the skull on both sides over the lateral ventricles by using the following coordinates: 0.8 mm posterior to bregma; 1.5 mm lateral to sagittal suture and 3.6 mm beneath the surface of the brain (Paxinos et al., 1980). Okadaic acid (200 ng) was injected bilaterally making the total dose of 100 ng in each ventricle. The concentration of okadaic acid in aCSF was adjusted so as to deliver 4 μl of the solution. Sham animals received ICV injection of the same volume of aCSF. The skin was sutured after injection followed by daily application of antiseptic powder (Neosporin). Postoperatively, the rats were fed with oral glucose and normal pellet diet for 4 days, followed by normal pellet diet alone.
as §2
The quantification of BDNF was done with the help and instructions provided by Millipore, USA quantikine rat BDNF immunoassay kit.

COc1ccc(C[C@H]2NC[C@H](O)[C@H]2OC(C)=O)cc1 [Aniosomycin, anisomycin]
c-Jun phosphorylation (c-Jun (substrate of JNK)): induced c-Jun phosphorylation in the total population of treated cells

C=C1[C@@H](O)[C@@H]2O[C@]3(CC[C@H](/C=C/[C@@H](C)[C@@H]4CC(C)=C[C@@]5(O[C@H](C[C@@](C)(O)C(=O)O)CC[C@H]5O)O4)O3)CC[C@H]2O[C@@H]1[C@@H](O)C[C@H](C)[C@H]1O[C@@]2(CCCCO2)CC[C@H]1C [okadaic acid]
increase in the percentage of neurons with high Phospho-Tau levels (Phospho-Tau in neurons; 10 nM okadaic acid, 3 hours): ~2 fold | phosphorylation of Tau (Phospho-Tau in neurons; 10 nM okadaic acid, 4 h treatment experiment): not able to elicit any increase | increase in the percentage of neurons with high Phospho-Tau levels (Phospho-Tau in neurons; 100 nM okadaic acid, 3 hours): ~3 fold | phosphorylation of the Tau protein (Phospho-Tau in neurons; okadaic acid 10 nM and 100 nM, 3 hours): increased the phosphorylation of the Tau protein in a dose dependent way | amount of phosphorylated tau in the axons and dendrites of the neurons (Phospho-Tau in neurons; okadaic acid treatment alone): greatly increased | elevation of NF-κβ p65 subunit in hippocampus (NF-κβ p65 subunit): 105% | lower ability to find the platform and learn its location (ICV-OKA rats): 1.5 fold | decrease in brain derived neurotrophic factors (BDNF): 40%
